# From patent US9187524B2, “Broad spectrum antibiotic arylomycin analogs” (The Scripps Research Institute, priority 2010, dated 2015)
# Like-named read-outs stand apart in the source and are kept apart here.
# Tests used:
# [1] = test system: lepB(P84L) E. coli MG1655; assay: microbe, parasite or virus in culture; assay type: cell-based, Escherichia coli; conditions: for MIC: Escherichia coli
# [2] = test system: lepB(P84L) P. aeruginosa PAO1; assay: microbe, parasite or virus in culture; assay type: cell-based, Pseudomonas aeruginosa; conditions: for MIC: Pseudomonas aeruginosa
# [3] = test system: spsB(S29P) S. epidermidis RP62A; assay: microbe, parasite or virus in culture; assay type: cell-based, Staphylococcus epidermidis; conditions: for MIC: Staphylococcus epidermidis
# wild type E. coli MG1655 = assay: microbe, parasite or virus in culture; assay type: cell-based, Escherichia coli; conditions: for MIC: Escherichia coli
# [4] = test system: wild type P. aeruginosa PAO1; assay: microbe, parasite or virus in culture; assay type: cell-based, Pseudomonas aeruginosa; conditions: for MIC: Pseudomonas aeruginosa
# B. brevis = assay: microbe, parasite or virus in culture; assay type: cell-based, Brevibacillus brevis; conditions: for MIC: Brevibacillus brevis
# R. equi = assay: microbe, parasite or virus in culture; assay type: cell-based; conditions: Rhodococcus (subgen. Prescottella) equi; Table 4
# S. pyogenes = assay: microbe, parasite or virus in culture; assay type: cell-based, Streptococcus pyogenes; conditions: for MIC: Streptococcus pyogenes
# S. pneumoniae = assay: microbe, parasite or virus in culture; assay type: cell-based, Streptococcus pneumoniae; conditions: for MIC: Streptococcus pneumoniae
# C. efficiens = assay: microbe, parasite or virus in culture; assay type: cell-based; conditions: Corynebacterium efficiens
# L. lactis = assay: microbe, parasite or virus in culture; assay type: cell-based, Lactococcus lactis
# Helicobacter pylori = assay: microbe, parasite or virus in culture; assay type: cell-based
# Chlamydia trachomatis = assay: microbe, parasite or virus in culture; assay type: cell-based
# Francisella tularensis = assay: microbe, parasite or virus in culture; assay type: cell-based
# Yersinia pestis = assay: microbe, parasite or virus in culture; assay type: cell-based; conditions: read-out: MIC, Yersinia pestis
# [5] = test system: E. coli PAS0232 (SPase P84S); assay: microbe, parasite or virus in culture; assay type: cell-based; conditions: Escherichia coli, read-out: MIC, E. coli PAS0232
# [6] = test system: P. aeruginosa PAS2006 (SPase P84S); assay: microbe, parasite or virus in culture; assay type: cell-based; conditions: Pseudomonas aeruginosa, read-out: MIC, P. aeruginosa PAS2006
# Rhodococcus erythropolis = assay: microbe, parasite or virus in culture; assay type: cell-based; conditions: Table 13
# Klebsiella pneumoniae = assay: microbe, parasite or virus in culture; assay type: cell-based; conditions: Table 13
# [7] = test system: Lactobacillus acidophilus; assay: microbe, parasite or virus in culture; assay type: cell-based; conditions: Table 13
# Lactobacillus plantarum = assay: microbe, parasite or virus in culture; assay type: cell-based; conditions: Lactiplantibacillus plantarum, Table 13
# Clostridium bolteae = assay: microbe, parasite or virus in culture; assay type: cell-based; conditions: Enterocloster bolteae, Table 13
# Bacteroides fragilis = assay: microbe, parasite or virus in culture; assay type: cell-based; conditions: Table 13
# S. aureus COL = assay: microbe, parasite or virus in culture; assay type: cell-based; conditions: Staphylococcus aureus, read-out: MIC, S. aureus COL
# S. aureus Rosenbach 328 = assay: microbe, parasite or virus in culture; assay type: cell-based; conditions: Staphylococcus aureus; MRSA strain
# [8] = target: T1, truncated wild type E. coli SPase (Escherichia coli, UniProt P00803); assay: biochemical; assay type: binding
# T1 construct: a truncated wild type E. coli SPase that lacks the N-terminal membrane helices; made in house; host or cells: E. coli BL21(DE3)
# [9] = target: T2, full-length wild type E. coli SPase (Pro-variant) (Escherichia coli, UniProt P00803); assay: biochemical; assay type: binding
# T2 construct: Full length His-tagged E. coli SPase proteins were expressed in BL21(DE3); His6; made in house; host or cells: E. coli BL21(DE3)
# [10] = target: T3, full-length P84S E. coli SPase (Ser-variant) (Escherichia coli, UniProt P00803, P84S); assay: biochemical; assay type: binding
# T3 construct: Full length His-tagged E. coli SPase proteins were expressed in BL21(DE3); His6; made in house; host or cells: E. coli BL21(DE3)
# [11] = target: T4, full-length wild type S. aureus SPase (Pro-variant) (Staphylococcus aureus, UniProt P0A070); assay: biochemical; assay type: binding
# T4 construct: Full length His-tagged S. aureus SPase proteins were expressed in and purified from BL21(DE3); His6 (N); made in house; host or cells: E. coli BL21(DE3)
# [12] = target: T5, full-length P29S mutant S. aureus SPase (Ser-variant) (Staphylococcus aureus, UniProt P0A070, P29S); assay: biochemical; assay type: binding
# T5 construct: Full length His-tagged S. aureus SPase proteins were expressed in and purified from BL21(DE3); His6 (N); made in house; host or cells: E. coli BL21(DE3)
# [13] = test system: E. coli and P. aeruginosa serine mutants; assay: MIC after permeabilizing with polymyxin B nonapeptide; assay type: cell-based
# [14] = Table 2B, SPase without resistance-conferring Pro
# [15] = Table 2B, SPase with resistance-conferring Pro
smiles,measurement,setting,value
CCCCCCCCCCCCCCCC(=O)N(C)[C@H](CO)C(=O)N[C@H](C)C(=O)NCC(=O)N(C)[C@@H]1C(=O)N[C@@H](C)C(=O)N[C@H](C(=O)O)Cc2ccc(O)c(c2)-c2cc1ccc2O [Arylomycin C16],MIC,"[1]; MG1655, read-out: MIC, E. coli P84L",2 µg/mL
same,MIC,"[1]; MG1655, read-out: MIC, Sensitive Ec",0.5 µg/mL
same,"MIC, Sensitive Ec",[1]; [14],0.5 µg/mL
same,MIC,"[2]; PAO1, read-out: MIC, P. aeruginosa P84L",4 µg/mL
same,MIC,"[2]; PAO1, read-out: MIC, Sensitive Pa",8 µg/mL
same,"MIC, Sensitive Pa",[2]; [14],8 µg/mL
same,MIC,"[3]; read-out: MIC, Resistant Se",8 µg/mL
same,MIC,"[3]; read-out: MIC, S. epidermidis PAS9001",8 µg/mL
same,MIC,"[3]; read-out: MIC, resistant S. epidermidis",8 µg/mL
same,"MIC, Resistant Se",[3]; [15],8 µg/mL
same,"fold elevated MIC compared to the wild type strain, Ser to Pro at position 29",[3]; ~75% of selected S. epidermidis mutants,32 fold
same,MIC,"wild type E. coli MG1655; MG1655, read-out: MIC, Resistant Ec",> 64 µg/mL
same,MIC,"wild type E. coli MG1655; MG1655, Table 11, […], read-out: MIC, E. coli MG1655",> 128 µg/mL
same,MIC,"wild type E. coli MG1655; MG1655, Table 13, […], read-out: MIC, Escherichia coli",> 128 µg/mL
same,MIC,"wild type E. coli MG1655; MG1655, read-out: MIC, E. coli",> 64 µg/mL
same,"MIC, Resistant Ec",wild type E. coli MG1655; [15],>64 µg/mL
same,MIC,"[4]; PAO1, read-out: MIC, Resistant Pa",> 64 µg/mL
same,MIC,"[4]; PAO1, Table 11, […], read-out: MIC, P. aeruginosa PAO1",> 128 µg/mL
same,MIC,"[4]; PAO1, Table 13, […], read-out: MIC, Pseudomonas aeruginosa",> 128 µg/mL
same,"MIC, Resistant Pa",[4]; [15],>64 µg/mL
same,MIC,"B. brevis; Table 4, read-out: MIC, B. brevis",> 64 µg/mL
same,MIC,"B. brevis; Table 13, […], read-out: MIC, Brevibacillus brevis",> 64 µg/mL
same,activity against B. brevis,B. brevis; MHBII broth and nutrient broth,no activity
same,MIC,R. equi,16 µg/mL
same,MIC,"S. pyogenes; Table 4, read-out: MIC, S. pyogenes",8 µg/mL
same,MIC,"S. pyogenes; Table 13, […], read-out: MIC, Streptococcus pyogenes",16 µg/mL
same,"MIC, S. pyogenes",S. pyogenes; Table 14,8 µg/mL
same,MIC,"S. pneumoniae; Table 4, read-out: MIC, S. pneumoniae",8 µg/mL
same,MIC,"S. pneumoniae; Table 13, […], read-out: MIC, Streptococcus pneumoniae",16 µg/mL
same,"MIC, S. pneumoniae",S. pneumoniae; Table 14,8 µg/mL
same,MIC,"C. efficiens; Table 4, read-out: MIC, C. efficiens",16 µg/mL
same,MIC,"C. efficiens; Table 13, […], read-out: MIC, Corynebacterium efficiens",> 64 µg/mL
same,MIC,"C. efficiens; text b755, read-out: MIC, Corynebacterium efficiens",16 µg/mL
same,MIC,"L. lactis; Lactococcus lactis, Table 4",16 µg/mL
same,"MIC, Lactococcus lactis","L. lactis; Table 13, multiple values: different strains",16 µg/mL
same,sensitivity of Lactococcus lactis spp. cremonis,L. lactis; one SPase with Leu29,sensitive
same,sensitivity of Lactococcus lactis spp. lactii,L. lactis; single SPase with Leu29,resistant
same,MIC,"Helicobacter pylori; Table 13, […], read-out: MIC, Helicobacter pylori",4 µg/mL
same,MIC,"Helicobacter pylori; read-out: MIC, H. pylori",4 µg/mL
same,MIC,"Chlamydia trachomatis; Table 13, […], read-out: MIC, Chlamydia trachomatis",6 µg/mL
same,MIC,"Chlamydia trachomatis; eradicated from human HeLa 229 cells, read-out: MIC, C. trachomatis",6 µg/mL
same,MIC,"Francisella tularensis; read-out: MIC, Francisella tularensis clinical isolate",32 µg/mL
same,MIC,"Francisella tularensis; read-out: MIC, Francisella tularensis clinical isolates, 8 of nineteen clinical isolates",4 to 16 µg/mL
same,MIC,"Francisella tularensis; read-out: MIC, Francisella tularensis clinical isolates, remainder of nineteen clinical isolates",> 64 µg/mL
same,MIC,Yersinia pestis,4 µg/mL
same,MIC,[5],2 µg/mL
same,MIC,[6],8 µg/mL
same,MIC,Rhodococcus erythropolis,16 µg/mL
same,MIC,Klebsiella pneumoniae,> 128 µg/mL
same,MIC,[7],> 128 µg/mL
same,MIC,Lactobacillus plantarum,> 128 µg/mL
same,MIC,Clostridium bolteae,> 16 µg/mL
same,MIC,Bacteroides fragilis,> 16 µg/mL
same,MIC,S. aureus COL,12 µg/mL
same,MIC,S. aureus Rosenbach 328,25 µg/mL
same,Kd,[8],979 ± 69 nM
same,Kd,[9],60 ± 16 nM
same,Kd,[10],5.7 ± 1 nM
same,Kd,[11],1280 ± 278 nM
same,Kd,[12],130 ± 53 nM
same,decrease of MIC on permeabilizing with polymyxin B nonapeptide,[13],≤ 4 fold
